Source: paper PMC8072931, “Thermodynamic Evaluation of the Interactions between Anticancer Pt(II) Complexes and Model Proteins” (Molecules, 2021)

What was measured:
[1] = molecular target: T1, hen egg-white lysozyme (HEWL) (Gallus gallus, UniProt P00698); test: UV-Vis absorbance titration (binding constant K), […]; DSC (no adduct seen in ESI-MS); conditions: read-out: K (M^-1) ^1
T1 construct: gene LYZ

[2] = molecular target: T1, hen egg-white lysozyme (HEWL); test: UV-Vis absorbance titration (binding constant K), […]; DSC; ESI-MS; conditions: read-out: K (M^-1) ^1

T1 sequence (P00698 19-147): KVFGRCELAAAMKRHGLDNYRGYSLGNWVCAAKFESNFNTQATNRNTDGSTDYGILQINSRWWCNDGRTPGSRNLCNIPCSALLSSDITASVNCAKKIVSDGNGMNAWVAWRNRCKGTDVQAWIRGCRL

Row | Compound | Kd [1] [µM] | Kd [2] [µM]
1 | O=S(=O)(O)C(F)(F)F.[I][Pt-2]12[n+]3ccccc3-c3cc(-c4ccccc4)cc([n+]31)-c1cccc[n+]12 [compound 2, [PtI(4′-phenyl-2,2′:6′,2″-terpyridine)](CF3SO3)] | 83.3 | 
2 | O=S(=O)(O)C(F)(F)F.[Cl][Pt-2]12[n+]3ccccc3-c3cc(-c4ccccc4)cc([n+]31)-c1cccc[n+]12 [compound 1, [PtCl(4′-phenyl-2,2′:6′,2″-terpyridine)](CF3SO3)] |  | 58.8
